Source: the supplement of paper PMC10307832

Assays:
Experiment in all cases: relative viability (nuclei count vs DMSO), 5 days (fraction); higher = more cells survive
Vorinostat + Lapatinib = compound: O=C(CCCCCCC(=O)Nc1ccccc1)NO [Vorinostat] + CS(=O)(=O)CCNCc1ccc(-c2ccc3ncnc(Nc4ccc(OCc5cccc(F)c5)c(Cl)c4)c3c2)o1 [Lapatinib] (partner 2 µM)
How it was run: (§1)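 Lung cancer cell lines, seeded in 1536-well plates, were treated the following day by pin tool with a single drug or with five library-drug doses (not always all listed) in √10 steps on top of a fixed anchor-drug dose. Cells were fixed and nuclei stained in one step after 5 days, and nuclei were counted. Relative viability is the nuclei count for treated wells divided by that for vehicle wells, reported as medians of duplicate plates.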

Vorinostat + Alpelisib = compound: O=C(CCCCCCC(=O)Nc1ccccc1)NO [Vorinostat] + Cc1nc(NC(=O)N2CCC[C@H]2C(N)=O)sc1-c1ccnc(C(C)(C)C(F)(F)F)c1 [Alpelisib] (partner 2 µM)
How it was run: as §1

Vorinostat + Dasatinib = compound: O=C(CCCCCCC(=O)Nc1ccccc1)NO [Vorinostat] + Cc1nc(Nc2ncc(C(=O)Nc3c(C)cccc3Cl)s2)cc(N2CCN(CCO)CC2)n1 [Dasatinib] (partner 0.075 µM)
How it was run: as §1

Vorinostat + Decitabine = compound: O=C(CCCCCCC(=O)Nc1ccccc1)NO [Vorinostat] + Nc1ncn([C@H]2C[C@H](O)[C@@H](CO)O2)c(=O)n1 [Decitabine] (partner 2 µM)
How it was run: as §1

Vorinostat + Olaparib = compound: O=C(CCCCCCC(=O)Nc1ccccc1)NO [Vorinostat] + O=C(c1cc(Cc2n[nH]c(=O)c3ccccc23)ccc1F)N1CCN(C(=O)C2CC2)CC1 [Olaparib] (partner 8 µM)
How it was run: as §1

NCI-H1792 was tested, and the relative viability (Vorinostat + Lapatinib; first compound 0.253 µM) was 0.964, the relative viability (Vorinostat + Lapatinib; first compound 0.8 µM) was 0.904 and the relative viability (Vorinostat + Lapatinib; first compound 2.53 µM) was 0.907. The relative viability (Vorinostat + Lapatinib; first compound 8 µM) was 0.0753, the relative viability (Vorinostat + Alpelisib; first compound 0.253 µM) was 0.742 and the relative viability (Vorinostat + Alpelisib; first compound 0.8 µM) was 0.55. The relative viability (Vorinostat + Alpelisib; first compound 2.53 µM) was 0.207, the relative viability (Vorinostat + Alpelisib; first compound 8 µM) was 0.0419 and the relative viability (Vorinostat + Dasatinib; first compound 0.253 µM) was 0.866. It also gave a relative viability (Vorinostat + Dasatinib; first compound 0.8 µM) of 0.921, a relative viability (Vorinostat + Dasatinib; first compound 2.53 µM) of 0.402 and a relative viability (Vorinostat + Dasatinib; first compound 8 µM) of 0.126. The relative viability (Vorinostat + Decitabine; first compound 0.253 µM) was 0.414, the relative viability (Vorinostat + Decitabine; first compound 0.8 µM) was 0.413 and the relative viability (Vorinostat + Decitabine; first compound 2.53 µM) was 0.163. It also gave a relative viability (Vorinostat + Decitabine; first compound 8 µM) of 0.0341, a relative viability (Vorinostat + Olaparib; first compound 0.253 µM) of 0.235 and a relative viability (Vorinostat + Olaparib; first compound 0.8 µM) of 0.218. It also gave a relative viability (Vorinostat + Olaparib; first compound 2.53 µM) of 0.0385 and a relative viability (Vorinostat + Olaparib; first compound 8 µM) of 0.0192.

NCI-H1793 showed a relative viability (Vorinostat + Lapatinib; first compound 0.253 µM) of 0.588, a relative viability (Vorinostat + Lapatinib; first compound 0.8 µM) of 0.613 and a relative viability (Vorinostat + Lapatinib; first compound 2.53 µM) of 0.375. It also gave a relative viability (Vorinostat + Lapatinib; first compound 8 µM) of 0.162, a relative viability (Vorinostat + Alpelisib; first compound 0.253 µM) of 0.905 and a relative viability (Vorinostat + Alpelisib; first compound 0.8 µM) of 0.96. The relative viability (Vorinostat + Alpelisib; first compound 2.53 µM) was 0.519, the relative viability (Vorinostat + Alpelisib; first compound 8 µM) was 0.251 and the relative viability (Vorinostat + Dasatinib; first compound 0.253 µM) was 0.491. The relative viability (Vorinostat + Dasatinib; first compound 0.8 µM) was 0.433, the relative viability (Vorinostat + Dasatinib; first compound 2.53 µM) was 0.351 and the relative viability (Vorinostat + Dasatinib; first compound 8 µM) was 0.135. It also gave a relative viability (Vorinostat + Decitabine; first compound 0.253 µM) of 0.596, a relative viability (Vorinostat + Decitabine; first compound 0.8 µM) of 0.504 and a relative viability (Vorinostat + Decitabine; first compound 2.53 µM) of 0.38. The relative viability (Vorinostat + Decitabine; first compound 8 µM) was 0.165, the relative viability (Vorinostat + Olaparib; first compound 0.253 µM) was 1.16 and the relative viability (Vorinostat + Olaparib; first compound 0.8 µM) was 0.937. For the same cell line, the relative viability (Vorinostat + Olaparib; first compound 2.53 µM) was 0.358 and the relative viability (Vorinostat + Olaparib; first compound 8 µM) was 0.111.

For NCI-H1915, the relative viability (Vorinostat + Lapatinib; first compound 0.253 µM) was 1.03, the relative viability (Vorinostat + Lapatinib; first compound 0.8 µM) was 0.962 and the relative viability (Vorinostat + Lapatinib; first compound 2.53 µM) was 0.673. For the same cell line, the relative viability (Vorinostat + Lapatinib; first compound 8 µM) was 0.0743, the relative viability (Vorinostat + Alpelisib; first compound 0.253 µM) was 1.16 and the relative viability (Vorinostat + Alpelisib; first compound 0.8 µM) was 1. It also gave a relative viability (Vorinostat + Alpelisib; first compound 2.53 µM) of 0.4, a relative viability (Vorinostat + Alpelisib; first compound 8 µM) of 0.0675 and a relative viability (Vorinostat + Dasatinib; first compound 0.253 µM) of 0.324. It also gave a relative viability (Vorinostat + Dasatinib; first compound 0.8 µM) of 0.24, a relative viability (Vorinostat + Dasatinib; first compound 2.53 µM) of 0.164 and a relative viability (Vorinostat + Dasatinib; first compound 8 µM) of 0.108. For the same cell line, the relative viability (Vorinostat + Decitabine; first compound 0.253 µM) was 0.278, the relative viability (Vorinostat + Decitabine; first compound 0.8 µM) was 0.254 and the relative viability (Vorinostat + Decitabine; first compound 2.53 µM) was 0.174. For the same cell line, the relative viability (Vorinostat + Decitabine; first compound 8 µM) was 0.106, the relative viability (Vorinostat + Olaparib; first compound 0.253 µM) was 0.231 and the relative viability (Vorinostat + Olaparib; first compound 0.8 µM) was 0.175. It also gave a relative viability (Vorinostat + Olaparib; first compound 2.53 µM) of 0.113 and a relative viability (Vorinostat + Olaparib; first compound 8 µM) of 0.0841.

NCI-H1944 was tested, and the relative viability (Vorinostat + Lapatinib; first compound 0.253 µM) was 0.77, the relative viability (Vorinostat + Lapatinib; first compound 0.8 µM) was 0.572 and the relative viability (Vorinostat + Lapatinib; first compound 2.53 µM) was 0.43. For the same cell line, the relative viability (Vorinostat + Lapatinib; first compound 8 µM) was 0.236, the relative viability (Vorinostat + Alpelisib; first compound 0.253 µM) was 0.849 and the relative viability (Vorinostat + Alpelisib; first compound 0.8 µM) was 0.566. The relative viability (Vorinostat + Alpelisib; first compound 2.53 µM) was 0.409, the relative viability (Vorinostat + Alpelisib; first compound 8 µM) was 0.151 and the relative viability (Vorinostat + Dasatinib; first compound 0.253 µM) was 0.204. For the same cell line, the relative viability (Vorinostat + Dasatinib; first compound 0.8 µM) was 0.184, the relative viability (Vorinostat + Dasatinib; first compound 2.53 µM) was 0.178 and the relative viability (Vorinostat + Dasatinib; first compound 8 µM) was 0.174. It also gave a relative viability (Vorinostat + Decitabine; first compound 0.253 µM) of 0.397, a relative viability (Vorinostat + Decitabine; first compound 0.8 µM) of 0.364 and a relative viability (Vorinostat + Decitabine; first compound 2.53 µM) of 0.259. For the same cell line, the relative viability (Vorinostat + Decitabine; first compound 8 µM) was 0.141, the relative viability (Vorinostat + Olaparib; first compound 0.253 µM) was 0.367 and the relative viability (Vorinostat + Olaparib; first compound 0.8 µM) was 0.33. For the same cell line, the relative viability (Vorinostat + Olaparib; first compound 2.53 µM) was 0.166 and the relative viability (Vorinostat + Olaparib; first compound 8 µM) was 0.114.

NCI-H1975 gave a relative viability (Vorinostat + Lapatinib; first compound 0.253 µM) of 1.16, a relative viability (Vorinostat + Lapatinib; first compound 0.8 µM) of 0.787 and a relative viability (Vorinostat + Lapatinib; first compound 2.53 µM) of 0.303. The relative viability (Vorinostat + Lapatinib; first compound 8 µM) was 0.117, the relative viability (Vorinostat + Alpelisib; first compound 0.253 µM) was 0.696 and the relative viability (Vorinostat + Alpelisib; first compound 0.8 µM) was 0.528. For the same cell line, the relative viability (Vorinostat + Alpelisib; first compound 2.53 µM) was 0.189, the relative viability (Vorinostat + Alpelisib; first compound 8 µM) was 0.133 and the relative viability (Vorinostat + Dasatinib; first compound 0.253 µM) was 0.407. For the same cell line, the relative viability (Vorinostat + Dasatinib; first compound 0.8 µM) was 0.32, the relative viability (Vorinostat + Dasatinib; first compound 2.53 µM) was 0.162 and the relative viability (Vorinostat + Dasatinib; first compound 8 µM) was 0.0818. It also gave a relative viability (Vorinostat + Decitabine; first compound 0.253 µM) of 0.435, a relative viability (Vorinostat + Decitabine; first compound 0.8 µM) of 0.441 and a relative viability (Vorinostat + Decitabine; first compound 2.53 µM) of 0.165. For the same cell line, the relative viability (Vorinostat + Decitabine; first compound 8 µM) was 0.113, the relative viability (Vorinostat + Olaparib; first compound 0.253 µM) was 0.9 and the relative viability (Vorinostat + Olaparib; first compound 0.8 µM) was 0.593. It also gave a relative viability (Vorinostat + Olaparib; first compound 2.53 µM) of 0.249 and a relative viability (Vorinostat + Olaparib; first compound 8 µM) of 0.125.

NCI-H1993 gave a relative viability (Vorinostat + Lapatinib; first compound 0.253 µM) of 0.959, a relative viability (Vorinostat + Lapatinib; first compound 0.8 µM) of 1 and a relative viability (Vorinostat + Lapatinib; first compound 2.53 µM) of 0.579. It also gave a relative viability (Vorinostat + Lapatinib; first compound 8 µM) of 0.399, a relative viability (Vorinostat + Alpelisib; first compound 0.253 µM) of 0.737 and a relative viability (Vorinostat + Alpelisib; first compound 0.8 µM) of 0.691. For the same cell line, the relative viability (Vorinostat + Alpelisib; first compound 2.53 µM) was 0.562, the relative viability (Vorinostat + Alpelisib; first compound 8 µM) was 0.522 and the relative viability (Vorinostat + Dasatinib; first compound 0.253 µM) was 0.655. It also gave a relative viability (Vorinostat + Dasatinib; first compound 0.8 µM) of 0.626, a relative viability (Vorinostat + Dasatinib; first compound 2.53 µM) of 0.544 and a relative viability (Vorinostat + Dasatinib; first compound 8 µM) of 0.41. It also gave a relative viability (Vorinostat + Decitabine; first compound 0.253 µM) of 0.704, a relative viability (Vorinostat + Decitabine; first compound 0.8 µM) of 0.65 and a relative viability (Vorinostat + Decitabine; first compound 2.53 µM) of 0.465. The relative viability (Vorinostat + Decitabine; first compound 8 µM) was 0.16, the relative viability (Vorinostat + Olaparib; first compound 0.253 µM) was 0.919 and the relative viability (Vorinostat + Olaparib; first compound 0.8 µM) was 1.02. For the same cell line, the relative viability (Vorinostat + Olaparib; first compound 2.53 µM) was 0.556 and the relative viability (Vorinostat + Olaparib; first compound 8 µM) was 0.383.

With NCI-H2009 the relative viability (Vorinostat + Lapatinib; first compound 0.253 µM) was 1.06, the relative viability (Vorinostat + Lapatinib; first compound 0.8 µM) was 0.503 and the relative viability (Vorinostat + Lapatinib; first compound 2.53 µM) was 0.329. The relative viability (Vorinostat + Lapatinib; first compound 8 µM) was 0.133, the relative viability (Vorinostat + Alpelisib; first compound 0.253 µM) was 1.24 and the relative viability (Vorinostat + Alpelisib; first compound 0.8 µM) was 1. For the same cell line, the relative viability (Vorinostat + Alpelisib; first compound 2.53 µM) was 0.633, the relative viability (Vorinostat + Alpelisib; first compound 8 µM) was 0.187 and the relative viability (Vorinostat + Dasatinib; first compound 0.253 µM) was 0.466. The relative viability (Vorinostat + Dasatinib; first compound 0.8 µM) was 0.454, the relative viability (Vorinostat + Dasatinib; first compound 2.53 µM) was 0.168 and the relative viability (Vorinostat + Dasatinib; first compound 8 µM) was 0.082. It also gave a relative viability (Vorinostat + Decitabine; first compound 0.253 µM) of 0.416, a relative viability (Vorinostat + Decitabine; first compound 0.8 µM) of 0.354 and a relative viability (Vorinostat + Decitabine; first compound 2.53 µM) of 0.273. The relative viability (Vorinostat + Decitabine; first compound 8 µM) was 0.0862, the relative viability (Vorinostat + Olaparib; first compound 0.253 µM) was 0.729 and the relative viability (Vorinostat + Olaparib; first compound 0.8 µM) was 0.582. For the same cell line, the relative viability (Vorinostat + Olaparib; first compound 2.53 µM) was 0.395 and the relative viability (Vorinostat + Olaparib; first compound 8 µM) was 0.0928.

NCI-H2023 was tested, and the relative viability (Vorinostat + Lapatinib; first compound 0.253 µM) was 1.01, the relative viability (Vorinostat + Lapatinib; first compound 0.8 µM) was 0.597 and the relative viability (Vorinostat + Lapatinib; first compound 2.53 µM) was 0.186. It also gave a relative viability (Vorinostat + Lapatinib; first compound 8 µM) of 0.0723, a relative viability (Vorinostat + Alpelisib; first compound 0.253 µM) of 0.623 and a relative viability (Vorinostat + Alpelisib; first compound 0.8 µM) of 0.509. It also gave a relative viability (Vorinostat + Alpelisib; first compound 2.53 µM) of 0.292, a relative viability (Vorinostat + Alpelisib; first compound 8 µM) of 0.0757 and a relative viability (Vorinostat + Dasatinib; first compound 0.253 µM) of 0.872. It also gave a relative viability (Vorinostat + Dasatinib; first compound 0.8 µM) of 0.49, a relative viability (Vorinostat + Dasatinib; first compound 2.53 µM) of 0.134 and a relative viability (Vorinostat + Dasatinib; first compound 8 µM) of 0.061. It also gave a relative viability (Vorinostat + Decitabine; first compound 0.253 µM) of 0.242, a relative viability (Vorinostat + Decitabine; first compound 0.8 µM) of 0.177 and a relative viability (Vorinostat + Decitabine; first compound 2.53 µM) of 0.11. The relative viability (Vorinostat + Decitabine; first compound 8 µM) was 0.0687, the relative viability (Vorinostat + Olaparib; first compound 0.253 µM) was 0.403 and the relative viability (Vorinostat + Olaparib; first compound 0.8 µM) was 0.296. The relative viability (Vorinostat + Olaparib; first compound 2.53 µM) was 0.113 and the relative viability (Vorinostat + Olaparib; first compound 8 µM) was 0.0691.
